The values that follow come from ChEMBL document CHEMBL1240327, “Small molecules enhance autophagy and reduce toxicity in Huntington's disease models” (Nat Chem Biol, 2007).

Assay [1] deals with Saccharomyces cerevisiae. Nature of the assay: Inhibition of 25 nM rapamycin-mediated cytostatic effect in yeast BY4742 at sub-lethal concentration after 48 to 96 hrs. In kind it is functional, organism-based.
Assay [2] has as its system Saccharomyces cerevisiae. Nature of the assay: Inhibition of rapamycin-mediated cytostatic effect in yeast RM11-1a after 48 to 96 hrs. In kind it is functional.
Assay [3] concerns Saccharomyces bayanus. Nature of the assay: Inhibition of rapamycin-mediated cytostatic effect in Saccharomyces bayanus after 48 to 96 hrs. In kind it is functional.
Assay [4] deals with Saccharomyces mikatae. Nature of the assay: Inhibition of rapamycin-mediated cytostatic effect in Saccharomyces mikatae after 48 to 96 hrs. In kind it is functional.
Assay [5] concerns Saccharomyces paradoxus. Nature of the assay: Inhibition of rapamycin-mediated cytostatic effect in Saccharomyces paradoxus after 48 to 96 hrs. In kind it is functional.
The subject of assay [6] is Saccharomyces cerevisiae. Nature of the assay: Inhibition of 50 nM rapamycin-mediated cytostatic effect in yeast BY4742 after 48 to 96 hrs. In kind it is functional, organism-based.

pEC50: −log10 of the molar value. Active and inactive are the calls of the source. No cut-off for these calls is given here.

As a reminder, the pEC50 is the negative decadic logarithm of the EC50, by convention in mol/L. Read a high pEC50 as a small EC50.

`COc1ccc(C[C@H]2NC[C@H](O)[C@H]2OC(C)=O)cc1`: in assay [1], the inhibition result is “inactive”.

As to `S=C(S)OC1CC2CC1C1CCCC21` (stereo unspecified), the inhibition result in assay [2], in assay [3], in assay [4] and in assay [5] was “Active” each time. The pEC50 in assay [6] is 6.39.

For the compound `O=C1C(Nc2ccccc2)=CC(=O)c2ncccc21`, the inhibition result in assay [2], in assay [3], in assay [4] and in assay [5] was “Active” each time. Also, in assay [6], the pEC50 was 4.98.
